Reference: publication PMC8583417, “Evaluation of the Antimicrobial Efficacy of N-Acetyl-L-Cysteine, Rhamnolipids, and Usnic Acid—Novel Approaches to Fight Food-Borne Pathogens” (International Journal of Molecular Sciences, 2021)

Legend:
S. aureus 816 = experiment: CLSM analysis, biofilm removal (preformed biofilm); assay type: cell-based, Staphylococcus aureus; details: for proportion of membrane-compromised cells: 20 h; for Thickness (µm) subCBM80: substance at subinhibitory concentration
Experimental: (§1) Biofilm prevention and removal analyses were performed using previously determined minimum inhibitory and subinhibitory concentrations for metabolic activity (MICBM80, subCBM80; MICMPB80, subCMPB80) of NAC, RLs, and UA specific for each tested strain. Selected concentrations were used to evaluate the inhibition of biofilm formation (biofilm prevention) and the reduction in previously formed biofilms (biofilm removal) for the same set of microorganisms, with the exception of S. Infantis, which was excluded from the analysis due to its inability to form biofilm in the selected microtiter plate. Biofilm prevention and removal were observed using CLSM with specific staining to distinguish between live and membrane-compromised cells. Images were analyzed to evaluate (i). the total volume of the biomass, (ii). ratios of live and membrane-compromised cells, and (iii). to calculate biofilm volume reduction for individual organisms after the respective treatment types. The total biofilm volume was normalized by the area of the well and expressed as an average biofilm thickness. Complete data are provided in Supplementary Materials (Tables S1–S8).
(§2) At first, bacterial suspensions were cultivated in microtiter plates to produce overnight biofilms (18 h). […] cells were then washed out, and the remaining biofilms were further cultivated for an additional 20 h with selected compounds. Following biofilm cultivation, biomass was observed using CLSM with live/membrane-compromised cell staining. Biomass images from biofilm removal treatments were similar to results from biofilm prevention, where biomass was highly diversified across the bacterial species and strains. Visually, biomass images were fairly consistent within the quadruplicates for each tested organism. Non-treated biofilms of S. aureus contained consistent biomass spread across the well (S. aureus 816) or grown around the edges (S. aureus 1241). […] PI staining identified membrane-compromised cells spread across S. aureus 816 biomass and incorporated in the edge of biomass and/or in the central part of the well (Figure 4B,C). […] Membrane-compromised cells appeared contained around the edges (S. aureus 1241), disturbed across the well (in both strains of L. monocytogenes), or in separated biomass in the central part of the well (in both strains of E. coli when treated with the subinhibitory concentration of RLs) (Figure 4D,E).
(§3) For both inhibition and reduction of biofilms, overnight cultures from BHI were diluted in TSB + 1% Glc to reach an absorbance of 0.08 to 0.1 at 625 nm. The inoculum (150 µL) was transferred into wells of the 96-well flat-bottomed Ibidiμ-Plate (Ibidi, Gräfelfing, Germany) and mixed with 150 µL of each of the three tested substances in technical quadruplicates, followed by incubation at 37 °C for 24 h. Simultaneously, the prepared bacterial suspensions were inoculated to an additional microtiter plate (200 µL) and allowed to form biofilm overnight (18 h at 37 °C). After the incubation, the content of the well was drained off, and 200 µL of each of the three tested substances was added to the plate, which was then incubated for an additional 20 h. The used concentrations of the substances represented the subinhibitory and minimum inhibitory concentrations for metabolic activity (subCBM80, MICBM80; subCMPB80, MICMPB80). Both setups contained a positive control of the bacterial growth (inoculum mixed with sterile TSB + 1% Glc medium) and a control monitoring microbial contamination (sterile medium). Non-treated wells were used as a positive control for comparison between non-treated and treated biofilm mass.
(§4) Prior to the imaging, the wells were stained with the LIVE/DEAD® BacLight™ Bacterial Viability Kit (Thermo Fisher Scientific, MA, USA) following the manufacturer’s guidelines and Drago et al.. […]

S. aureus 1241 = experiment: CLSM analysis, biofilm removal (preformed biofilm); assay type: cell-based, Staphylococcus aureus; details: 20 h exposure, mean ± SD; for Thickness (µm) MICBM80: substance at its MIC; for Thickness (µm) subCBM80: substance at subinhibitory concentration
Experimental: as §1, §2, §3, §4

[1] = tested on: S. Enteritidis ATCC 13076; experiment: CLSM analysis, biofilm prevention; assay type: cell-based, Salmonella enterica Enteritidis; details: 24 h exposure; for Thickness (µm) subCBM80: substance at subinhibitory concentration, mean ± SD
Experimental: as §1
For both inhibition and reduction of biofilms, overnight cultures from BHI were diluted in TSB + 1% Glc to reach an absorbance of 0.08 to 0.1 at 625 nm. The inoculum (150 µL) was transferred into wells of the 96-well flat-bottomed Ibidiμ-Plate (Ibidi, Gräfelfing, Germany) and mixed with 150 µL of each of the three tested substances in technical quadruplicates, followed by incubation at 37 °C for 24 h. Simultaneously, the prepared bacterial suspensions were inoculated to an additional microtiter plate (200 µL) and allowed to form biofilm overnight (18 h at 37 °C). After the incubation, the content of the well was drained off, and 200 µL of each of the three tested substances was added to the plate, which was then incubated for an additional 20 h. […]
All collected images were statistically evaluated to quantify biovolume utilizing the surface estimation procedure described in Parker et al.. […]

[2] = preformed biofilm, 20 h exposure, mean ± SD

| Structure (SMILES) | proportion of membrane-compromised cells (S. aureus 816; subinhibitory concentration) | Thickness (µm) subCBM80 (S. aureus 816; [2]) | Thickness (µm) MICBM80 (S. aureus 1241) | Thickness (µm) subCBM80 (S. aureus 1241) | Thickness (µm) subCBM80 [1] | proportion of membrane-compromised cells (S. aureus 816; MIC) | Thickness (µm) MICBM80 (S. aureus 816; preformed biofilm, 20 h exposure, substance at its MIC, mean ± SD) | Thickness (µm) MICBM80 ([1]; substance at its MICBM80, mean ± SD) |
| --- | --- | --- | --- | --- | --- | --- | --- | --- |
| CC(=O)c1c(O)c(C)c(O)c2c1OC1=CC(=O)C(C(C)=O)C(=O)C12C (single isomer, unassigned; (+)) [UA, (+)-usnic acid] | up to 40% | 152 ± 68.6 µm | 210 ± 32.5 µm | 251 ± 15.7 µm | 77.6 ± 39.1 µm | – | – | – |
| CC(=O)N[C@@H](CS)C(=O)O [NAC, N-Acetyl-L-cysteine] | – | 247 ± 64.7 µm | 253 ± 44.4 µm | 266 ± 37.9 µm | 137 ± 69.6 µm | up to 20% | 156 ± 80.4 µm | 117 ± 41.6 µm |
